6 molecules from patent US6342261B1, “Method of preserving foods using noble gases” (American Air Liquide, priority 1992, dated 2002) can be followed below.

The structures appear in SMILES notation. “And” between values parts separate entries of the source, which are not always exact repeats. Identical values can stand only once.

One experiment has as its system Tyrosinase EC 1.14.18.1. Kind of experiment: Enzyme activity under gas: tyrosinase. The settings on record: 25°, optimal reaction conditions, simple saturation of solution with gas. It is filed as biochemical. As for the experimental part:
(§1) Sealed cuvettes containing enzymes representative of and in fact important in food product degradation processes were thoroughly purged and filled with assay gases. Injection of gassed substrate solutions started the reactions, which were generally conducted under optimal conditions. These were monitored […] by scanning uv/vis spectrophotometry. All controls were conducted for oxygen, nitrogen and carbon dioxide. A range of temperatures and pressures were employed. An example protocol is appended. Results were expressed in real-time, and transformed to calculate yield and rate differences for the reaction. Over 50 exemplary enzymes were so assayed. Enzymes selected for examination from various products are assayed in precisely the same manner, but always in terms of relative activity in comparison with that product in air or another control gas or gas mixture.
(§2) The follwing Table summarizes the maximum inhibition of enzymes activity realized with various noble gases under various storage conditions.
at 25° and optimal reaction conditions, simple saturation of solution with gas: […]

Experiment [1] has as its target Glucose oxidase EC 1.1.3.4 (Aspergillus niger, UniProt P13006). Kind of experiment: Enzyme activity under gas: glucose oxidase. Format: biochemical. As for the experimental part: as §1, §2
Experiment [2] concerns the target Gamma-glutamyl transpeptidase EC 2.3.2.2 (Homo sapiens, UniProt P19440). Kind of experiment: Enzyme activity under gas: gamma-glutamyl transpeptidase. It is filed as biochemical. The protocol: as §1, §2
In experiment [3] the test system is Aspartate aminotransferase (EC 2.6.1.1). In words: Enzyme activity under gas: aspartate aminotransferase. Format: biochemical. As for the experimental part:
as §1, §2

Another experiment deals with Lipase EC 3.1.1.3. In words: Enzyme activity under gas: lipase. Format: biochemical. The protocol: as §1, §2
The test system of experiment [4] is Class V. Isomerases (EC 5). In words: Enzyme activity under gas: Class V isomerases (enzyme not named). Format: biochemical. The protocol: as §1, §2
Experiment [5] deals with Acetyl-CoA synthetase EC 6.2.1.1. Kind of experiment: Enzyme activity under gas: acetyl-CoA synthetase. Format: biochemical. As for the experimental part:
as §1, §2

Another experiment has as its system Aerobes. Kind of experiment: Total microorganisms from product trials: aerobes. It is filed as cell-based. As for the experimental part:
(§3) Many different products were assayed under a wide variety of temperatures and pressures, packaging treatments, and post-packaging handling. In the general experiment, sterile pouches of impermeable film were filled with freshly-obtained food products under recommended handling regimes. Each was then purged thoroughly with the gas mixture to be tested. Then sealed, the pouch was further treated by cooking, cold storage, or other parameter, or else was not. The sealed pouch was stored at room, cold, or freezing temperature, and periodically sampled for microorganism counts (total, aerobic, anaerobic, Pseudomonas, Lactobacilli). It was also studied for observable deterioration and scored. Some samples were subjected to appropriate chemical analysis. Others were sampled for specific enzyme activities as above. All told, the average experiment consisted of replicate samples of product being assayed for microbial counts, microbial identifications, enyzme activities, chemical oxidation, discoloration, odor and/or taste changes, and final carbon dioxide and oxygen concentrations. Microbes and enzymes known to be important in the degradation of each individual product were selected for examination and scoring from the literature.

The subject of another experiment is Anaerobes. In words: Total microorganisms from product trials: anaerobes. Format: cell-based. As for the experimental part: as §3
A further experiment deals with Yeasts. In words: Total microorganisms from product trials: yeasts. It is filed as cell-based. The protocol: as §3
A further experiment concerns Molds. In words: Total microorganisms from product trials: molds. Format: cell-based. The protocol:
as §3

The nature of experiment [6]: Chemical oxidation reactions of food components under gases. The following applies: even in the presence of oxygen; pigments, phenolics, ascorbic acid of the product section. An excerpt: Other oxygenated species, such as carbon dioxide are reactively destructive.
That is, in accordance with the present invention, it has been discovered that certain gases can directly affect the oxidation rate of chemicals and not merely slow oxidation only as function of physical and inert displacement of oxygen. Generally, the present invention is effected by contacting the chemicals or chemical preparations during at least a protion of storage thereof to a noble gas, a mixture of noble gases or a gaseous mixture containing at least one noble gas.

The test system of the next experiment is Yeasts and molds. Kind of experiment: Yeast and mold growth on bread and pasta under gases. Format: cell-based. The protocol:
as §3, with “concentrations.” for “concentrations. Microbes and enzymes known to be important in the degradation of each individual product were selected for examination and scoring from the literature.”

For the next experiment, the target named is Phosphoglucose isomerase (Homo sapiens, UniProt P06744). In words: Enzyme activity under gas: phosphoglucose isomerase. Format: biochemical. As for the experimental part:
as §1, §2

Sequence of Gamma-glutamyl transpeptidase EC 2.3.2.2 (P19440 whole entry): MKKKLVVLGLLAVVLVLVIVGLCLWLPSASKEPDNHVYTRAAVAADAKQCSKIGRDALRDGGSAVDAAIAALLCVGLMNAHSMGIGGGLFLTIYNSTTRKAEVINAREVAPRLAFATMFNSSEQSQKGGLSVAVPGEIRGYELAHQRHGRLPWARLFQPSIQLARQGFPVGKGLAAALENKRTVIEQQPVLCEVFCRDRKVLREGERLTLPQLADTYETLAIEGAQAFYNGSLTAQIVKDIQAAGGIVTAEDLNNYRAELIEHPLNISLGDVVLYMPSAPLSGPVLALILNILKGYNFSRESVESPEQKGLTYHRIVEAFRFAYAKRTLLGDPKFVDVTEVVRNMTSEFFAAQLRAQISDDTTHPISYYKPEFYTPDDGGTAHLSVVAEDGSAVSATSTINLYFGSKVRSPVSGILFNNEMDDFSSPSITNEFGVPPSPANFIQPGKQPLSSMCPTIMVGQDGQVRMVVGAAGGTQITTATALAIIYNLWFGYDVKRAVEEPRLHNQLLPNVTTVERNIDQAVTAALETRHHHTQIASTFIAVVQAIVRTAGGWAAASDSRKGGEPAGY
Sequence of Glucose oxidase EC 1.1.3.4 (P13006 17-605): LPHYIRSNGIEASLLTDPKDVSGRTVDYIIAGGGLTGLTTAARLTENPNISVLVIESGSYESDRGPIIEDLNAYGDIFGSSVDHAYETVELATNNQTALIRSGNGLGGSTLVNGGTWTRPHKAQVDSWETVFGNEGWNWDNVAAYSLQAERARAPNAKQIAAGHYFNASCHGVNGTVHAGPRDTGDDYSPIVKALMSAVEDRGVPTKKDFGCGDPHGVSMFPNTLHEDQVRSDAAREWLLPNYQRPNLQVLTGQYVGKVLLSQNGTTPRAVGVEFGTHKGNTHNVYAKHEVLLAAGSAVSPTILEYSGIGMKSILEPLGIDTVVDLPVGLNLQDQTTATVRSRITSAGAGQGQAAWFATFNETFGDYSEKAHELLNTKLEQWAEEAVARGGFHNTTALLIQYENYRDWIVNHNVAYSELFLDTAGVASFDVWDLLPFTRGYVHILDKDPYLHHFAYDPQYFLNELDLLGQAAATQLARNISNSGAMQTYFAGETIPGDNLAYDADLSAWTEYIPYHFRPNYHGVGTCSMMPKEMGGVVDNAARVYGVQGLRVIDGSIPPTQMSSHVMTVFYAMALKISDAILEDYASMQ

As for `[Ar]` [Ar, argon], in the experiment with Tyrosinase EC 1.14.18.1, the “Result (inhibition vs air), maximum inhibition of enzyme activity” value (from here on “Result (inhibition vs air)”) is recorded as −60%. The entries for the “Result (inhibition), maximum inhibition of enzyme activity” value (“Result (inhibition), maximum inhibition” for short) in experiment [1], in experiment [2] and in [3] were −85.8%, −5% and −17%, respectively. In addition, the “Result, With Lipase” value with Lipase EC 3.1.1.3 was −18%. Besides, the “inhibition (up to)” value in the experiment with Lipase EC 3.1.1.3 is given as “up to −20%”. Further, in experiment [4], the “Result, Class V isomerases” value is recorded as −37%. In addition, in experiment [5], the Result was −75%. Moreover, the “% Inhibition Compared to 100% Air” value stood at 33% with Aerobes (Carrots); 13% in the experiment on Aerobes (Fish Fillets); 11% in the experiment on Aerobes (Green Beans, Refrigerated); 2% in the experiment with Aerobes (Green Beans, Room Temperature); 0.4% in the experiment with Aerobes (Ground Beef); 0.4% in the experiment with Aerobes (Lettuce). Moreover, the “% Inhibition Compared to 100% Air” value with Aerobes (Mixed Salad (Chef Salad)) was determined as 12%; in the experiment with Aerobes (Shrimp) it was 1%; with Aerobes (Steaks), 13%; in the experiment on Aerobes (Strawberries), 40%; with Aerobes (Tomatoes) it was 96%; with Anaerobes (Lettuce) it was 16%. For the same molecule, the “% Inhibition Compared to 100% Air” value is 49% with Yeasts (Carrots); 35% in the experiment with Yeasts (Fish Fillets); 20% with Yeasts (Green Beans, Refrigerated); 10% in the experiment on Yeasts (Green Beans, Room Temperature); 28% in the experiment with Yeasts (Ground Beef); 28% in the experiment on Yeasts (Lettuce). For the same molecule, the “% Inhibition Compared to 100% Air” value with Yeasts (Mixed Salad (Chef Salad)) was 47%; in the experiment with Yeasts (Shrimp) it was 2%; with Yeasts (Smelt), 17%; with Yeasts (Steaks), 16%; in the experiment with Yeasts (Strawberries) it was 12%; in the experiment with Yeasts (Tomatoes), 38%. Besides, the “% Inhibition Compared to 100% Air” value was determined as 20% with Molds (Carrots); 15% in the experiment with Molds (Fish Fillets); 25% in the experiment with Molds (Green Beans, Refrigerated); 15% with Molds (Green Beans, Room Temperature); 4% with Molds (Ground Beef); 4% in the experiment on Molds (Lettuce). Moreover, the “% Inhibition Compared to 100% Air” value came to 2% with Molds (Mixed Salad (Chef Salad)); 5% with Molds (Shrimp); 22% in the experiment on Molds (Smelt); 27% in the experiment with Molds (Steaks); 80% with Molds (Strawberries); 51% in the experiment on Molds (Tomatoes). Further, the “% Inhibition Compared to 100% CO2” value in the experiment with Anaerobes (Carrots) is 9%; in the experiment on Anaerobes (Fish Fillets), 2%; in the experiment with Anaerobes (Green Beans, Refrigerated), 61%; with Anaerobes (Ground Beef), 16%; in the experiment with Anaerobes (Mixed Salad (Chef Salad)), 6% and 1%; with Anaerobes (Shrimp), 4%. Also, the “% Inhibition Compared to 100% CO2” value worked out at 30% in the experiment with Anaerobes (Smelt), 6% in the experiment with Anaerobes (Steaks) and 22% in the experiment with Anaerobes (Tomatoes).
Regarding `N#N` [Gas N2, nitrogen, reference compound], in the experiment on Tyrosinase EC 1.14.18.1, the “Result (inhibition vs air)” value was determined as 0%. Further, the “inhibition of chemical oxidation, order of effect of the gases” value in [6] is “has no such ability”.
For the molecule `O=C=O` [CO2, carbon dioxide, reference compound], the “Result (inhibition vs air)” value in the experiment on Tyrosinase EC 1.14.18.1 is listed as 0%. In addition, the “% Inhibition Compared to 100% Air” value was 24% in the experiment on Aerobes (Carrots); 14% in the experiment with Aerobes (Fish Fillets); 26% in the experiment on Aerobes (Green Beans, Refrigerated); 10% with Aerobes (Green Beans, Room Temperature); 9% with Aerobes (Ground Beef); 9% with Aerobes (Lettuce). In addition, the “% Inhibition Compared to 100% Air” value with Aerobes (Mixed Salad (Chef Salad)) was determined as 2%; in the experiment with Aerobes (Shrimp) it was 4%; in the experiment with Aerobes (Steaks) it was 21%; with Aerobes (Strawberries), 48%; with Aerobes (Tomatoes), 92%; in the experiment on Yeasts (Carrots), 35%. Further, the “% Inhibition Compared to 100% Air” value with Yeasts (Fish Fillets) was 36%; with Yeasts (Green Beans, Refrigerated) it was 55%; with Yeasts (Green Beans, Room Temperature), 19%; in the experiment with Yeasts (Ground Beef), 4%; in the experiment on Yeasts (Lettuce), 4%; in the experiment with Yeasts (Mixed Salad (Chef Salad)), 63%. For the same molecule, the “% Inhibition Compared to 100% Air” value with Yeasts (Shrimp) was 8%; in the experiment on Yeasts (Smelt) it was 0.8%; in the experiment with Yeasts (Steaks), 15%; with Yeasts (Strawberries) it was 32%; with Yeasts (Tomatoes) it was 80%; in the experiment with Molds (Carrots) it was 3%. Besides, the “% Inhibition Compared to 100% Air” value with Molds (Fish Fillets) amounted to 18%; in the experiment with Molds (Green Beans, Refrigerated), 2%; with Molds (Green Beans, Room Temperature), 3%; in the experiment on Molds (Ground Beef), 2%; in the experiment with Molds (Lettuce), 2%; in the experiment on Molds (Mixed Salad (Chef Salad)) it was 4%. Moreover, the “% Inhibition Compared to 100% Air” value with Molds (Shrimp) amounted to 2%; in the experiment with Molds (Smelt), 29%; in the experiment on Molds (Steaks), 17%; with Molds (Strawberries), 100%; in the experiment on Molds (Tomatoes) it was 62%. Further, the “depression of yeasts and molds with respect to nitrogen or air” value with Yeasts and molds (Bread) is given as “may be superior”; in the experiment with Yeasts and molds (Pasta), “may be superior”.
As to `[Xe]` [Xe, xenon], the entries for the “Result (inhibition), maximum inhibition” value in experiment [1], in experiment [2] and in [3] were −91.6% (inhibition), −7% (inhibition) and −17% (inhibition), respectively. In addition, the “Result, With Lipase” value in the experiment on Lipase EC 3.1.1.3 was −25.6%. In addition, the Result is on record as −61% on Phosphoglucose isomerase and −18% in [5].
For `[Kr]` [Kr, krypton], the “Result (inhibition vs air)” value in the experiment with Tyrosinase EC 1.14.18.1 is listed as −73%. The “Result (inhibition), maximum inhibition” value in [1] is reported as −92.7%; in experiment [2] it was −8%; in [3], −82%. For the same molecule, the “Result, With Lipase” value in the experiment on Lipase EC 3.1.1.3 is −25%. The Result in [5] is −16%.
With `[Ne]` [Ne, neon], the “Result (inhibition vs air)” value in the experiment on Tyrosinase EC 1.14.18.1 was −46.7%. The “Result (inhibition), maximum inhibition” value is on record as −61.7% in [1], −3% in experiment [2] and −12% in [3]. In addition, the “Result, With Lipase” value with Lipase EC 3.1.1.3 is recorded as −15%. Also, the Result on Phosphoglucose isomerase is recorded as −45%; in experiment [5] it was −15%.
